Experimental data from PubChem BioAssay AID248 (DTP/NCI, 2004).
“And” between values parts separate entries of the source, which are not always exact repeats. Identical values can stand only once. Toxic doses and inconclusive results are not listed. Rule as the data show it: active = T/C of 150% or more; inactive = T/C below 125%.

Test system: L1210 leukemia ip in BDF1 mice, survival T/C
Experiment: NCI In Vivo Anticancer Drug Screen. Data for tumor model L1210 Leukemia (intraperitoneal) in B6D2F1 (BDF1) mice
Settings: endpoint: mean survival time, higher = longer survival
Procedure, shortened: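 Tumor cells were implanted, animals were treated, and survival was followed. The result divides the treated measurement by the vehicle-control measurement.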

[1] = dose: 50.0 mg/kg/injection, schedule: Q01DX009 (ip), vehicle: saline with Tween-80
[2] = dose: 100.0 mg/kg/injection, schedule: Q01DX009 (ip), vehicle: saline with Tween-80
[3] = dose: 200.0 mg/kg/injection, schedule: Q01DX009 (ip), vehicle: saline with Tween-80
[4] = dose: 100.0 mg/kg/injection, schedule: Q01DX009 (ip), vehicle: Klucel (hydroxypropylcellulose) (HPC)
[5] = dose: 200.0 mg/kg/injection, schedule: Q01DX009 (ip), vehicle: Klucel (hydroxypropylcellulose) (HPC)
[6] = dose: 400.0 mg/kg/injection, schedule: Q01DX009 (ip), vehicle: Klucel (hydroxypropylcellulose) (HPC)
[7] = dose: 100.0 mg/kg/injection, schedule: Q01DX009 (ip), vehicle: saline
[8] = dose: 200.0 mg/kg/injection, schedule: Q01DX009 (ip), vehicle: saline
[9] = dose: 100.0 mg/kg/injection, schedule: Q01DX001 (ip), vehicle: saline
[10] = dose: 100.0 mg/kg/injection, schedule: Q04DX003 (ip), vehicle: saline
[11] = dose: 200.0 mg/kg/injection, schedule: Q01DX001 (ip), vehicle: saline
[12] = dose: 200.0 mg/kg/injection, schedule: Q04DX003 (ip), vehicle: saline
[13] = dose: 400.0 mg/kg/injection, schedule: Q01DX001 (ip), vehicle: saline
[14] = dose: 400.0 mg/kg/injection, schedule: Q01DX009 (ip), vehicle: saline
[15] = dose: 400.0 mg/kg/injection, schedule: Q04DX003 (ip), vehicle: saline
[16] = dose: 100.0 mg/kg/injection, schedule: Q04DX003 (ip), vehicle: saline with Tween-80
[17] = dose: 200.0 mg/kg/injection, schedule: Q04DX003 (ip), vehicle: saline with Tween-80
[18] = dose: 400.0 mg/kg/injection, schedule: Q04DX003 (ip), vehicle: saline with Tween-80
[19] = dose: 400.0 mg/kg/injection, schedule: Q01DX009 (ip), vehicle: saline with Tween-80

Measured: T/C

[B-][N+](CC)(CC)c1ccccc1
inactive: [1] 92 % of control | [2] 95 % of control | [3] 92 % of control

ClC(Cl)(Cl)c1ccc(C2OCCO2)cc1
inactive: dose: 177.0 mg/kg/injection, schedule: Q01DX001 (ip), vehicle: other 98 % of control | dose: 266.0 mg/kg/injection, schedule: Q01DX001 (ip), vehicle: other 110 % of control | dose: 400.0 mg/kg/injection, schedule: Q01DX001 (ip), vehicle: other 94 % of control | dose: 600.0 mg/kg/injection, schedule: Q01DX001 (ip), vehicle: other 111 % of control

O=C(Nc1ccccc1C(=O)N/N=C/c1ccc(Cl)cc1Cl)c1ccccc1Cl
inactive: [4] 90 % of control | [5] 97 % of control | [6] 86 % of control

O=C(O)C(CNC(=O)C(F)(F)F)Cc1ccc([N+](=O)[O-])cc1 (centres undefined)
inactive: [2] 120 % of control | [7] 88 % of control | [8] 103 % of control

O=[N+]([O-])c1ccc(NC(=S)Nc2cccc(C(F)(F)F)c2)cc1
inactive: [4] 90 % of control | [5] 91 % of control | [6] 100 % of control

CC12CCC(C(Br)C1=O)C2(C)CS(=O)(=O)O (centres undefined)
inactive: [9] 104 % of control and 101 % of control | [7] 89 % of control | [10] 95 % of control | [11] 93 % of control and 104 % of control | [8] 97 % of control | [12] 97 % of control | [13] 104 % of control | [14] 92 % of control | [15] 95 % of control

CN(C=O)C(=S)[S-].CN(C=O)C(=S)[S-].CN(C=O)C(=S)[S-].O=C(Nc1ccc(S(=O)(=O)Nc2ccc(N=Nc3ccc4nc([S-])sc4c3)cc2)cc1)C(N1CC1)(N1CC1)N1CC1.[Pd]
inactive: dose: 6.25 mg/kg/injection, schedule: Q01DX009 (ip), vehicle: saline 109 % of control | dose: 6.25 mg/kg/injection, schedule: Q04DX003 (ip), vehicle: saline 108 % of control | dose: 12.5 mg/kg/injection, schedule: Q01DX009 (ip), vehicle: saline 101 % of control | dose: 12.5 mg/kg/injection, schedule: Q04DX003 (ip), vehicle: saline 106 % of control | dose: 25.0 mg/kg/injection, schedule: Q01DX009 (ip), vehicle: saline 98 % of control | dose: 25.0 mg/kg/injection, schedule: Q04DX003 (ip), vehicle: saline 103 % of control

Nc1nc(SCc2ccccn2)c2ncn(C3OC(CO)C(O)C3O)c2n1 (centres undefined)
inactive: dose: 6.25 mg/kg/injection, schedule: Q01DX Z (ip), vehicle: methylcellulose (MC) 106 % of control | dose: 12.5 mg/kg/injection, schedule: Q01DX Z (ip), vehicle: methylcellulose (MC) 104 % of control | dose: 25.0 mg/kg/injection, schedule: Q01DX Z (ip), vehicle: methylcellulose (MC) 112 % of control

O=C(Nc1ccc(Cl)cc1[N+](=O)[O-])N1CCN(c2ccccc2)CC1
inactive: dose: 44.0 mg/kg/injection, schedule: Q01DX009 (ip), vehicle: Klucel (hydroxypropylcellulose) (HPC) 101 % of control | dose: 66.0 mg/kg/injection, schedule: Q01DX009 (ip), vehicle: Klucel (hydroxypropylcellulose) (HPC) 97 % of control | [4] 101 % of control | dose: 150.0 mg/kg/injection, schedule: Q01DX009 (ip), vehicle: Klucel (hydroxypropylcellulose) (HPC) 95 % of control | [5] 96 % of control | [6] 101 % of control

CC(C)(C(=O)O)c1ccccc1
inactive: dose: 100.0 mg/kg/injection, schedule: Q01DX001 (ip), vehicle: saline with Tween-80 96 % of control | dose: 200.0 mg/kg/injection, schedule: Q01DX001 (ip), vehicle: saline with Tween-80 96 % of control | dose: 400.0 mg/kg/injection, schedule: Q01DX001 (ip), vehicle: saline with Tween-80 96 % of control

CC12CC3CC(C)(C1)CC(CN=C(N)CCl)(C3)C2
inactive: dose: 6.25 mg/kg/injection, schedule: Q01DX009 (ip), vehicle: Klucel (hydroxypropylcellulose) (HPC) 106 % of control | dose: 12.5 mg/kg/injection, schedule: Q01DX009 (ip), vehicle: Klucel (hydroxypropylcellulose) (HPC) 100 % of control | dose: 12.5 mg/kg/injection, schedule: Q04DX002 (ip), vehicle: Klucel (hydroxypropylcellulose) (HPC) 96 % of control | dose: 25.0 mg/kg/injection, schedule: Q04DX002 (ip), vehicle: Klucel (hydroxypropylcellulose) (HPC) 96 % of control

CSCCNC(=O)NS(=O)(=O)c1ccc(Cl)cc1
inactive: [10] 96 % of control | [12] 97 % of control | [15] 92 % of control

CC(CO)CCC(=O)C(C)C1C2(CC3C4CCC5CC(O)CCC5(C)C4CCC31C)SCCS2 (centres undefined)
inactive: dose: 25.0 mg/kg/injection, schedule: Q04DX002 (ip), vehicle: saline with Tween-80 100 % of control | dose: 50.0 mg/kg/injection, schedule: Q04DX002 (ip), vehicle: saline with Tween-80 100 % of control | dose: 100.0 mg/kg/injection, schedule: Q04DX002 (ip), vehicle: saline with Tween-80 96 % of control

CCCCOC(=O)c1ccccc1C(=O)OC1CCCCC1
inactive: dose: 75.0 mg/kg/injection, schedule: Q01DX001 (ip), vehicle: Klucel (hydroxypropylcellulose) (HPC) 115 % of control | dose: 150.0 mg/kg/injection, schedule: Q01DX001 (ip), vehicle: Klucel (hydroxypropylcellulose) (HPC) 103 % of control | dose: 300.0 mg/kg/injection, schedule: Q01DX001 (ip), vehicle: Klucel (hydroxypropylcellulose) (HPC) 100 % of control

CC(C)(C)C(=O)CC(=O)C(C)(C)C.CC(C)(C)C(=O)CC(=O)C(C)(C)C.CC(C)(C)C(=O)CC(=O)C(C)(C)C.[Ho]
inactive: [16] 94 % of control | [17] 105 % of control | [18] 95 % of control

CCOC(=O)c1ccc2c(ccc[n+]2C)c1
inactive: dose: 75.0 mg/kg/injection, schedule: Q01DX001 (ip), vehicle: saline 97 % of control | dose: 75.0 mg/kg/injection, schedule: Q04DX003 (ip), vehicle: saline 107 % of control | dose: 150.0 mg/kg/injection, schedule: Q01DX001 (ip), vehicle: saline 97 % of control | dose: 150.0 mg/kg/injection, schedule: Q04DX003 (ip), vehicle: saline 105 % of control | dose: 300.0 mg/kg/injection, schedule: Q01DX001 (ip), vehicle: saline 95 % of control

O=C(/C=C/C=C/c1ccccc1)c1ccccc1O
inactive: [1] 91 % of control | [2] 87 % of control and 89 % of control | [16] 94 % of control | [3] 94 % of control | [17] 91 % of control | [19] 89 % of control | [18] 93 % of control

CSc1ncnc2c1c(Br)cn2C1OC(CO)C(O)C1O (centres undefined)
inactive: [9] 100 % of control | [11] 108 % of control | [13] 114 % of control

CC=NC(C[S-])C(=O)O.CC=NC(C[S-])C(=O)O.[Fe+2] (centres undefined)
inactive: [2] 92 % of control | [16] 94 % of control | [3] 91 % of control | [17] 93 % of control | [19] 87 % of control | [18] 88 % of control

CN(Cc1ccccc1)C(=O)Nc1ccc(F)c([N+](=O)[O-])c1
inactive: [4] 113 % of control | [5] 98 % of control | [6] 101 % of control

COc1ccc(Cc2c3cc(OC)c(OC)cc3cc[n+]2C)cc1OC
inactive: dose: 12.5 mg/kg/injection, schedule: Q01DX009 (ip), vehicle: saline with Tween-80 103 % of control | dose: 25.0 mg/kg/injection, schedule: Q01DX009 (ip), vehicle: saline with Tween-80 100 % of control | [1] 105 % of control and 106 % of control | [16] 98 % of control | [17] 95 % of control

C=C(C)COc1ccc(C(=O)c2ccccc2)cc1
inactive: dose: 100.0 mg/kg/injection, schedule: Q04DX002 (ip), vehicle: Klucel (hydroxypropylcellulose) (HPC) 103 % of control | dose: 200.0 mg/kg/injection, schedule: Q04DX002 (ip), vehicle: Klucel (hydroxypropylcellulose) (HPC) 100 % of control | dose: 400.0 mg/kg/injection, schedule: Q04DX002 (ip), vehicle: Klucel (hydroxypropylcellulose) (HPC) 94 % of control

CC(C)CCC(C)C1CCC2C3CC([N+](=O)[O-])=C4CC(OC(=O)c5ccccc5)CCC4(C)C3CCC12C (centres undefined)
inactive: [2] 103 % of control | [3] 90 % of control | [19] 90 % of control

CC(C)(CS(C)(=O)=O)C(=O)O
inactive: [9] 98 % of control | [7] 89 % of control | [11] 98 % of control | [13] 101 % of control | [14] 91 % of control
